In the NIST ThermoML archive (doi:10.1016/j.jct.2004.10.005):

Test: molar heat capacity at saturation pressure
Conditions: Vacuum adiabatic calorimetry

BrC12CC3CC(CC(C3)C1)C2 [1-bromotricyclo[3.3.1.1(3,7)]decane]
Conditions	molar heat capacity [J/K/mol]
127.91 K, Crystal 3	86.56
131.28 K, Crystal 3	88.26
134.63 K, Crystal 3	90.38
137.93 K, Crystal 3	91.96
141.17 K, Crystal 3	93.89
144.35 K, Crystal 3	95.86
147.49 K, Crystal 3	97.33
150.64 K, Crystal 3	99.37
153.81 K, Crystal 3	101.4
156.99 K, Crystal 3	103
160.16 K, Crystal 3	104.9
160.53 K, Crystal 3	105.5
163.7 K, Crystal 3	107.4
166.86 K, Crystal 3	109.4
169.99 K, Crystal 3	111.2
173.09 K, Crystal 3	113.3
176.19 K, Crystal 3	115.1
179.34 K, Crystal 3	117.2
182.56 K, Crystal 3	119.4
185.78 K, Crystal 3	121.5
189.07 K, Crystal 3	123.6
192.43 K, Crystal 3	126.2
195.86 K, Crystal 3	128.7
199.38 K, Crystal 3	130.9
202.85 K, Crystal 3	133.7
206.29 K, Crystal 3	135.9
209.76 K, Crystal 3	138.8
213.19 K, Crystal 3	141.4
216.58 K, Crystal 3	143.7
220.01 K, Crystal 3	146.7
223.4 K, Crystal 3	149.2
226.82 K, Crystal 3	152.2
230.32 K, Crystal 3	155.2
230.97 K, Crystal 3	155.8
234.32 K, Crystal 3	158.8
237.7 K, Crystal 3	162.3
241 K, Crystal 3	166.2
241.09 K, Crystal 3	165.9
244.38 K, Crystal 3	169.3
244.57 K, Crystal 3	169.7
247.65 K, Crystal 3	173
248.16 K, Crystal 3	173.6
251.11 K, Crystal 3	177.1
251.71 K, Crystal 3	177.8
254.61 K, Crystal 3	181.5
255.15 K, Crystal 3	182.1
257.99 K, Crystal 3	186.2
258.5 K, Crystal 3	187.1
261.32 K, Crystal 3	192.1
261.93 K, Crystal 3	193.3
264.6 K, Crystal 3	198.2
265.32 K, Crystal 3	200.1
267.83 K, Crystal 3	205.5
268.59 K, Crystal 3	207.2
271.04 K, Crystal 3	214.7
271.85 K, Crystal 3	217.2
274.2 K, Crystal 3	227.6
275.09 K, Crystal 3	231.6
277.23 K, Crystal 3	248.5
278.12 K, Crystal 3	258.4
279.76 K, Crystal 3	284.9
280.08 K, Crystal 3	308.9
280.17 K, Crystal 3	297.9
280.56 K, Crystal 3	309.4
280.94 K, Crystal 3	336.3
281.3 K, Crystal 3	377.6
281.63 K, Crystal 3	422.2
281.93 K, Crystal 3	523.4
282.18 K, Crystal 3	643.2
282.41 K, Crystal 2	586.3
282.52 K, Crystal 2	470.3
282.69 K, Crystal 2	384.2
283.04 K, Crystal 2	278.4
283.48 K, Crystal 2	248.5
283.93 K, Crystal 2	226.3
284.68 K, Crystal 2	219.3
285.09 K, Crystal 2	222.5
286.24 K, Crystal 2	214.2
288.26 K, Crystal 2	209.5
290.59 K, Crystal 2	211.1
291.43 K, Crystal 2	211.7
293.15 K, Crystal 2	212.4
294.62 K, Crystal 2	213.4
295.8 K, Crystal 2	213.7
298.44 K, Crystal 2	215.6
298.96 K, Crystal 2	215.9
301.06 K, Crystal 2	217.3
303.6 K, Crystal 2	220.7
306.07 K, Crystal 2	236.7
308.13 K, Crystal 2	437.7
312.39 K, Crystal 1	249
314.9 K, Crystal 1	250.6
314.98 K, Crystal 1	251.1
317.39 K, Crystal 1	253.5
317.63 K, Crystal 1	254
